Test results published in US9370508B2, “Imidazoquinolines as dual lipid kinase and mTOR inhibitors” (NOVARTIS AG, priority 2007, dated 2016).

Legend:
[1] = tested on: ribosomal protein S6 phosphorylation; assay: 96-well in-cell western assay of ribosomal protein S6 phosphorylation in HeLa cells; type: cell-based; settings: Homo sapiens, 1 h, 60 min stimulation with nutrients in the presence or absence of 100 nM insulin, anti-phospho(Ser235-236)S6, read-out: induced phosphorylation of S6, mean IC50
Experimental: A 96-well “in-cell western” assay is used to quantitate the levels of ribosomal protein S6 phosphorylation following treatment of HeLa cells with compounds. HeLa cells are seeded on to 96-wells plates (5000 cells/well), cultured for 72 h prior to serum deprivation for 18 h, in a humidified environment of 5% CO2 at 37° C. throughout. Thereafter, they are incubated in 200 μL of starve-medium for 180 min prior to a 60 min stimulation with 200 μL of test-medium. All solutions are pre-warmed for 30 min; the 96-well plates are sealed (Millipore) and incubated in a non-CO2 incubator at 37° C. during the starvation and stimulation protocol. […] After a 48 h blocking step in Tris buffered saline pH=7.2 containing 0.1% Triton-X100 and 0.1% bovine serum albumin, at 4° C., fixed cells are incubated overnight at 4° C. with the anti-phospho(Ser235-236)S6 primary antibody (Cell Signaling Technologies #2211 [can be substituted with Cell Signaling Technologies #2215 to quantitate S6 phosphorylation at Ser240-244]; 50 μL at 1:300 in blocking-solution), washed (8×200 μL TBS) before 100 μL of europium-labeled anti-rabbit secondary antibody (Perkin-Elmer; 2.4 μg/mL) is added for 90 min at room temperature in the dark. After a final wash (8×200 μL TBS), 100 μL of Delphia™ Enhancement-solution is added to each well and the fluorescence quantified 120 min later using an Envision 2101 (Perkin-Elmer). […]

mTOR enzyme = target: T1, mTOR enzyme (Homo sapiens, UniProt P42345); assay: K-LISA mTOR activity kit biochemical assay; settings: GST-S6K1 substrate, 100 μM ATP, 30 minutes at 30° C., anti-phospho Thr389 detection; read-out: mTOR kinase activity, mean IC50
T1 construct: purchased Calbiochem CBA055
Experimental: This mixture is then transferred to a glutathione-coated 96-well plate pre-incubated with GST-S6K1 recombinant protein. Kinase reactions are initiated by adding kinase buffer containing 100 μM ATP and are incubated for 30 minutes at 30° C. mTOR activity is quantitated using an anti-phospho Thr389-HRP conjugate detection system. Wortmannin served as control compound for the mTOR kinase activity assay.

| SMILES | IC50 [1] [µM] | IC50 (mTOR enzyme) [µM] |
| --- | --- | --- |
| Cn1c(=O)n(-c2ccc(C(C)(C)C#N)cc2)c2c3cc(-c4cnc5ccccc5c4)ccc3ncc21 [compound 1, 2-Methyl-2-[4-(3-methyl-2-oxo-8-quinolin-3-yl-2,3-dihydro-imidazo[4,5-c]quinolin-1-yl)-phenyl]-propionitrile] | 0.017 | – |
| COc1ccc(-c2ccc3ncc4c(c3c2)n(-c2ccc(N3CCNCC3)c(C(F)(F)F)c2)c(=O)n4C)cn1 [compound 2, 8-(6-Methoxy-pyridin-3-yl)-3-methyl-1-(4-piperazin-1-yl-3-trifluoromethyl-phenyl)-1,3-dihydro-imidazo[4,5-c]quinolin-2-one] | 0.011 | 0.0014 |
